Test results published in patent US10188110B2 (TELEFLEX MEDICAL INCORPORATED, priority 2010, dated 2019).
Counter-ions that a name gives are not always drawn. Like-named read-outs stand apart in the source and are kept apart here.

Columns and labels:
[1] = test system: Enterobacter aerogenes (E. aerogenes); assay: Kirby-Bauer disk diffusion in HCl agar; assay type: cell-based; conditions: for E. aerogenes Avg. ZOI: 5-FU 256 ppm
Method: (§1) Agar plates and cultures of S. aureus, P. aeruginosa, and Enterobacter aerogenes (E. aerogenes) were set up as described in EXPERIMENT 8. […] Cultures were diluted to 1×10^8 CFU/ml.
(§2) From each of the test solution, 20 μL was then dispensed over the Kirby Bauer diffusion disks. The disks were air dried for five minutes and using forceps applied over the agar plates. Plates were then incubated for 24 hours at 37° C. Subsequently the zones of inhibition were measured, in millimeters (mm) using calipers. Each test was run in triplicate.

S. aureus = conditions: for S. Aureus Avg. ZOI, HCl Alone: Table 8
Method: as §1, §2

[2] = test system: S. aureus and P. aeruginosa
From the text: One centimeter long catheter segments were cut from Multi-lumen Central Venous Catheters (CVC) from Rifampin and Minocycline impregnated CVCs (Rif/Mino). Cultures of S. aureus and P. aeruginosa were started in Muller Hinton Broth. For each organism, concentration of the inoculum was adjusted to 1×10^8 CFU/ml using 0.5 McFarland standard. […] Plates were sneaked with a single organism using a sterile cotton applicator that was dipped into the broth culture. Using sterile forceps, 1 cm long catheter segments from the control and Rif/Mino catheters were vertically inserted into the agar. Plates were then incubated for 24 hours at 37° C. Each test was run in triplicate. Subsequently the zones of inhibition (ZOI) were measured, in millimeters (mm) using calipers and the three ZOI measurements for each test were averaged.

[3] = test system: S. aureus and P. aeruginosa; conditions: HCl Conc. 0.001 M, Table 7
Method: as §1, §2

## O=c1[nH]cc(F)c(=O)[nH]1 [5-FU, 5-Fluorouracil]
[1]; HCl Conc. 0 M
  E. aerogenes Avg. ZOI: 16.15 mm
[1]; HCl Conc. 0.01 M
  E. aerogenes Avg. ZOI: 18.95 mm
[1]; HCl concentration of 0.01 M
  effect of HCl on inhibition: enhanced inhibition
S. aureus; 5-FU 8 ppm, HCl Conc. 0 M
  S. Aureus Avg. ZOI: 0.0 mm
S. aureus; 5-FU 8 ppm, HCl Conc. 0.001 M
  S. Aureus Avg. ZOI: 0.0 mm
S. aureus; 5-FU 8 ppm, HCl Conc. 0.01 M
  S. Aureus Avg. ZOI: 13.8 mm
S. aureus; 5-FU 16 ppm, HCl Conc. 0 M
  S. Aureus Avg. ZOI: 10.0 mm
S. aureus; 5-FU 16 ppm, HCl Conc. 0.001 M
  S. Aureus Avg. ZOI: 11.5 mm
S. aureus; 5-FU 16 ppm, HCl Conc. 0.01 M
  S. Aureus Avg. ZOI: 21.4 mm

## Cl [HCl, hydrochloric acid]
[1]; HCl Conc. 0.01 M, Table 9
  E. aerogenes Avg. ZOI, HCl Alone: 0 mm
[2]; HCl Conc. 0.001 M, Table 6
  Avg. ZOI HCl Alone: 0 mm
[2]; Muller Hinton Agar plates
  highest HCl concentration that allowed formation of a confluent lawn of organisms: 0.01 M
S. aureus; HCl Conc. 0.001 M
  S. Aureus Avg. ZOI, HCl Alone: 0 mm
S. aureus; HCl Conc. 0.01 M
  S. Aureus Avg. ZOI, HCl Alone: 0 mm
[3]
  Avg. ZOI HCl Alone: 0 mm
